Laboratory results as given in US20250057963A1, “DISCOVERY OF PIPERLONGUMINE AS A NOVEL E3 LIGASE LIGAND” (University of Florida Research Foundation, Incorporated, priority 2021, published 2025).
“Also recorded” adds a separate entry of the source.

Tests used:
[1] = tested on: LNCaP prostate cancer cells and H1299 lung cancer cells; test: Cell killing (MTS) with or without KEAP1 siRNA knockdown; format: cell-based, Human; conditions: KEAP1 siRNA vs control siRNA 48 h; compound 0.1 mM (LNCaP) or 0.3 mM (H1299) for 24 h
Protocol: FIGS. 19A to 19B show percentages of cell killing in LNCaP (FIG. 19A) and H1299 (FIG. 19B) cells with or without KEAP1 knockdown. LNCaP and H1299 cells were treated with control siRNA or siRNAs targeting KEAP1 for 48 h and then reseeded and treated with indicated compound (0.1 mM for LNCaP cells and 0.3 mM for H1299 cells) for 24 h. The cell viability was then determined by MTS assay. The data are presented as mean±SD from three replicate cell cultures in a representative experiment. Data are representative of two independent experiments. Statistical significance was calculated with unpaired two-tailed Student's t-tests. **P<0.01; ***P<0.001; NS: not significant.
Viability (MTS) assays in various cancer cells followed the methods described in our previous report (Khan et al., 2019). The data were expressed as average % cell viability and fitted in non-linear regression curves using GraphPad Prism 9 (GraphPad Software, La Jolla, CA, USA).

CDK9 = CDK9 (Homo sapiens, UniProt P50750); test: CDK9 degradation in MOLT4 cells (immunoblot); format: cell-based; design: endogenous in cells; host or cells: MOLT4, 293T, K562, NCI-H1299, LNCaP; conditions: immunoblot
Chain of CDK9 (P50750 whole entry): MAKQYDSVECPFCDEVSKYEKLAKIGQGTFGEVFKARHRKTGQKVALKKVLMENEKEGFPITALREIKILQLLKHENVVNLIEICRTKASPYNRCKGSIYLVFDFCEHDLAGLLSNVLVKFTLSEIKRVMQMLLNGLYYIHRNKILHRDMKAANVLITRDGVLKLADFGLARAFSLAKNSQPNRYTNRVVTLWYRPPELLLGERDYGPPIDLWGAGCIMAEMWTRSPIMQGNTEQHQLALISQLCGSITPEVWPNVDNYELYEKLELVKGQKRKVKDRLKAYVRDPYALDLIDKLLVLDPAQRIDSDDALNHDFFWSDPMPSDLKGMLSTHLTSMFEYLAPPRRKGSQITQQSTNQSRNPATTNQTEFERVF
Protocol: All the cell lines were maintained in a humidified incubator at 37° C. and 5% CO2.
Data analysis was performed using GraphPad Prism software (version 9) unless indicated otherwise. All graphs presented represent the mean±standard deviation of the mean (SD) unless otherwise stated.

[2] = biological target: T1, CDK9: 955: KEAP1 ternary complex (Homo sapiens, UniProt P50750+Q14145); test: NanoBRET ternary complex formation assay in live 293T cells; format: cell-based; conditions: HiBit-CDK9 and Halo-KEAP1 in 293T cells, 6 h
T1 construct: expressed in transfected cells; host or cells: 293T
T1 sequence (P50750 whole entry): as above
T1 sequence (Q14145 whole entry): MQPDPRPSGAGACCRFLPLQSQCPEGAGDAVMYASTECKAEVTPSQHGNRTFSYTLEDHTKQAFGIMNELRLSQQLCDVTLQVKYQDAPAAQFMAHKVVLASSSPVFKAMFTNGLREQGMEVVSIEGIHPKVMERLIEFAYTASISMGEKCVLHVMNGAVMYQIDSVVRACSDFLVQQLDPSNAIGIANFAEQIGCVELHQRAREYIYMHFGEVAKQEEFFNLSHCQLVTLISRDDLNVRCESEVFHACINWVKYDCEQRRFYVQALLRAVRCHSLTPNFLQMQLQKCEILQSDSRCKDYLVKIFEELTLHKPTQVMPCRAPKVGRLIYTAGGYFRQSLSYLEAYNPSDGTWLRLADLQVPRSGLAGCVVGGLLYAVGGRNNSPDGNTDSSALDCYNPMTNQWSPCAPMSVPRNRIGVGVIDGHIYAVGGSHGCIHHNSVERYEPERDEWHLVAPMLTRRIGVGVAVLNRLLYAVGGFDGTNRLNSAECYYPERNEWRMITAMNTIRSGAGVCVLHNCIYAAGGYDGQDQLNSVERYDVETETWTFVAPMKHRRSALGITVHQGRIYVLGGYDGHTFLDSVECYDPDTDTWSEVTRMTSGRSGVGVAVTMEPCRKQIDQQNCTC
Excerpt: CMV HiBit (Cat. No. CS1956B03) was purchased from Promega. Plasmid HaloTag-KEAP1 (a gift from Yimon Aye, plasmid #58240) was purchased from Addgene. HiBit-CDK9 were constructed through the Gibson assembly method. The primer pair (5′-[…]atggcaaagcagtacgactcggtggag-3′ and 5′-[…]gaagacgcgctcaaactccgtctggt-3′) and the template HA-CDK9 (a gift from Andrew Rice, plasmid #28102) was used to clone the CDK9 fragment. The primer pair (5′-accagacggagtttgagcgcgtcttc[…]-3′ and 5′-ctccaccgagtcgtactgcttcgccat[…]-3′) and pBit3.1—N(Cat. No. N2361, Promega) were used to clone the vector-containing fragment. The PCR fragments were assembled using NEBuilder® HiFi DNAAssembly Master Mix. DNA sequences in all these plasmids were authenticated by automatic sequencing. […] After treatment, NanoBRET Nano-Glo Substrate (Cat. No. N1662, Promega) was added into the medium, and the contents were mixed by shaking the plate for 30 s before measuring donor and acceptor signals on Biotek plate reader. Dual-filtered luminescence was collected with a 450/50 nm bandpass filter (donor, NanoBiT-CDK9 protein) and a 610-nm longpass filter (acceptor, HaloTag NanoBRET ligand) using an integration time of 0.5 s. mBRET ratios were calculated following the NanoBRET™ Nano-Glo® Detection System (Cat. No. N1662, Promega).

EML4-ALK = biological target: T2, EML4-ALK (Homo sapiens, UniProt Q9UM73); test: EML4-ALK degradation in NCI-H2228 cells (immunoblot); format: cell-based
T2 construct: endogenous in cells; host or cells: NCI-H2228; the other entry of the earlier key: EML4 (Q9HC35, Echinoderm microtubule-associated protein-like 4)
T2 sequence (Q9UM73 with tags, fused parts or gaps): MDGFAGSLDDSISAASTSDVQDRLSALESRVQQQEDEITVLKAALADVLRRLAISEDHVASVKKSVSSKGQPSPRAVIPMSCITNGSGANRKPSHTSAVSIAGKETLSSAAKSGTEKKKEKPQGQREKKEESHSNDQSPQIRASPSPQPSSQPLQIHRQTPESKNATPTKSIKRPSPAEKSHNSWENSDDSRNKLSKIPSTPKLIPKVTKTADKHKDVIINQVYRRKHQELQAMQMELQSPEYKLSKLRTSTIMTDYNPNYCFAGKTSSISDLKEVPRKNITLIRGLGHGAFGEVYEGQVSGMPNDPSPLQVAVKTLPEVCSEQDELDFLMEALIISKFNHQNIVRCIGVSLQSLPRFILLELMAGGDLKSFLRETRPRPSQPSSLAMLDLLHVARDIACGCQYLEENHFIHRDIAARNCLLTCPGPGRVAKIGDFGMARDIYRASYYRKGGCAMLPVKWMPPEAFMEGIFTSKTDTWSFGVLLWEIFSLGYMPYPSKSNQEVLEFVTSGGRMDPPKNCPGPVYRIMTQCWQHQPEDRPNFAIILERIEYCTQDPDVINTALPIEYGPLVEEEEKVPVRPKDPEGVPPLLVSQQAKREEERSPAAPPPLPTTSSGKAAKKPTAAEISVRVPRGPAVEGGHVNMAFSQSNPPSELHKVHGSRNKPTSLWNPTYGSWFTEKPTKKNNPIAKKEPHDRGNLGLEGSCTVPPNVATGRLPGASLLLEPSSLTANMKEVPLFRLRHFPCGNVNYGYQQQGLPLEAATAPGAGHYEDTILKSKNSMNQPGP
Protocol: Human T-ALL MOLT4 (Cat. No. CRL-1582), K562 (Cat. No. CCL-243), NCI-H1299 (Cat. No. CRL-5803), NCI-H2228 (Cat. No. CRL-5935), LNCaP (Cat. No. CRL-1740), 22RV1 (Cat. No. CRL-2505), PC3 (Cat. No. CRL-1435), DU145 (Cat. No. HTB-81), and epithelial kidney HEK 293T (293T, Cat. No. ACS-4500) cell lines were recently purchased from American Type Culture Collection (ATCC, Manassas, VA, USA). MOLT4, K562, NCI—H-1299, NCI-H2228, LNCap, and 22RV 1 cell lines were cultured in RPMI 1640 medium (Cat No. 22400-089, Thermo Fisher Scientific, Waltham, MA, USA) supplemented with 10% (v/v) heat-inactivated fetal bovine serum (FBS, Cat. No. S11150H, Atlanta Biologicals, Flowery Branch, GA, USA), 100 U/mL penicillin and 100 pig/mL streptomycin (Pen-Strep, Cat. No. 15140122, Thermo Fisher Scientific). PC3 cells were cultured in complete F—12K medium (Kaighn's modification of Ham's F-12 medium, Cat. No. 30-2004, ATCC) supplemented with 10% (v/v) heat-inactivated FBS, 100 U/mL penicillin, and 100 μg/mL streptomycin. DU145 cells were cultured in complete Eagle's Minimum Essential Medium (EMEM, Cat. No. 30-2003, ATCC) supplemented with 10% (v/v) heat-inactivated FBS, 100 U/mL penicillin, and 100 μg/mL streptomycin. […]
Immunoblot data were quantified using the ImageJ (v 1.53a) software from NIH. […]

[3] = tested on: PL-binding proteins in MOLT4 cells; test: Competitive ABPP with PL-Alkyne probe and LC-MS/MS in MOLT4 cells; design: species or system Human
Protocol: Competitive ABPP. MOLT4 cells (2×10^7) were pre-treated with DMSO or 20 µM PL for 4 h and then treated with 1 μM PL-Alkyne probe (Zhang et al., 2018b) for an additional 4 h. The cells were then harvested and lysed in 1× Dulbecco's phosphate-buffered saline (PBS) buffer (Cat. #D1408, Sigma-Aldrich) containing protease and phosphatase inhibitors. CuAAC reaction was performed as previously described (Spradlin et al., 2019) and biotinylated proteins were enriched using Pierce™ streptavidin agarose beads (Cat. #20353, ThermoFisher).
Sample preparation and LC-MS/MS analysis. Protein samples were reduced, alkylated, and digested on-bead using filter-aided sample preparation (Wisniewski et al., 2009) with sequencing grade modified porcine trypsin (Cat. No. V5111, Promega). […]
The MS/MS was acquired according to standard conditions established in the lab. […] The scan sequence of the mass spectrometer was based on the original TopTen™ method; the analysis was programmed for a full scan recorded between 375-1575 Da at 60,000 resolution, and a MS/MS scan at resolution 15,000 to generate product ion spectra to determine amino acid sequence in consecutive instrument scans of the fifteen most abundant peaks in the spectrum. […]
Data processing and analysis. All MS/MS samples were analyzed using Sequest (Thermo Fisher Scientific, San Jose, CA, USA; version IseNode in Proteome Discoverer 2.4.0.305). […]

[4] = tested on: proteins in senescent WI38 cells; conditions: cited from earlier work

Row | formation of the CDK9:KEAP1 ternary complex [2] | 819-induced EML4-ALK degradation after pre-treatment with MG132, MLN4924 or DMF (EML4-ALK) | Structure (SMILES) | effect of KEAP1 knockdown on cytotoxicity of the compound [1] | CDK9 degradation (CDK9) | EML4-ALK degradation (EML4-ALK; immunoblot) | number of PL-binding E3 ligases [3] | number of PL-binding proteins [3] | number of PL-binding proteins ([4]; senescent WI38 fibroblasts, previous study) | number of PL-binding E3 ligases ([4]; senescent cells, previous study (Zhang et al., 2018b))
1 | did not; also recorded: negligible | – | COc1cc(CCC(=O)N2CCCCC2=O)cc(OC)c1OCCN1CCN(C(=O)CN2CCC(C(=O)Nc3ncc(SCc4ncc(C(C)(C)C)o4)s3)CC2)CC1 [compound 336, N-(5-(((5-(tert-butyl)oxazol-2-yl)methyl)thio)thiazol-2-yl)-1-(2-(4-(2-(2,6-dimethoxy-4-(3-oxo-3-(2-oxopiperidin-1-yl)propyl)phenoxy)ethyl)piperazin-1-yl)-2-oxoethyl)piperidine-4-carboxamide] | no significant effect | could not induce CDK9 degradation; also recorded: but not 336, can induce CDK9 degradation; also recorded: cannot degrade CDK9 | – | – | – | – | –
2 | – | can be blocked | COc1cc(/C=C/C(=O)N2CCC=CC2=O)cc(OC)c1OCC(=O)N1CCC(c2cc(OC(C)C)c(Nc3ncc(Cl)c(Nc4ccccc4S(=O)(=O)C(C)C)n3)cc2C)CC1 [compound 819, (E)-1-(3-(4-(2-(4-(4-((5-chloro-4-((2-(isopropylsulfonyl)phenyl)amino)pyrimidin-2-yl)amino)-5-isopropoxy-2-methylphenyl)piperidin-1-yl)-2-oxoethoxy)-3,5-dimethoxyphenyl)acryloyl)-5,6-dihydropyridin-2(1H)-one] | – | – | concentration-dependent manner; also recorded: degrades EML4-ALK | – | – | – | –
3 | – | – | COc1cc(/C=C/C(=O)N2CCC=CC2=O)cc(OC)c1OC [PL, Piperlongumine] | – | only 955, degraded CDK9; also recorded: none of these treatments degraded CDK9 | – | 9 | about 300 | 172 | 8
